Assays:
Type in all cases: in vivo, human
nasal cavity [1] = test: Gravimetric measurement of nasal secretions in a subject with rhinitis after NasoNeb rinsing; conditions: NasoNeb rinse 5 sec at t=0, 2, 5 hr, D-Ala-OiPr 2 mg/mL, GlyOiPr 3 mg/mL; for Weight of individual blowouts of nasal secretions (average ± s.e.m.): vehicle 0.40±0.03 g; for 10-hr nasal secretion (avg. ± s.e.m): vehicle 3.53±0.44 g
Procedure: A top-loading balance, sensitive to 1 mg, was used to measure phlegm secretions from the nose. A pre-weighed tissue paper was tared to zero, and after blowing into the tissue, the amount of exudate was recorded from the balance display. This measurement is an objective sign of nasal inflammation. Microbalances, sensitive to 1 mg, are now available online for less than $20. Conventional laboratory balances with the same capabilities are listed for $2000+ each but should now be obsolete. The convenience of an inexpensive method for quantifying phlegm output as an indicator of nasal pathology is part of the inventive steps.
FIG. 9. Inhibition of nasal secretions in a subject with rhinitis by topical administration of the preferred embodiments D-Ala-OiPr and GlyOiPr with a Nasoneb® apparatus. Rinsing of GlyOiPr and D-Ala-OiPr (dissolved 3 mg/ml and 2 mg/mL, respectively, in 1% ethanol and 2% polysorbate 80) was for 5 sec at t=0, 2, and 5 hr. Secretions were recorded for 10-15 hr per day. The 10-hr secretion (avg.±s.e.m) was vehicle 3.53±0.44 g, D-Ala-OiPr 1.70±0.27 g, GlyOiPr 1.32±0.32 g, with n=6, 5, 5 observations per group, respectively.
FIG. 10. Weights of individual blowouts of nasal secretions in a subject with rhinitis after topical administration of D-Ala-OiPr and GlyOiPr with a Nasoneb® apparatus. The vehicle or test substances were rinsed into the nasal cavity (0 mg/mL, 2 mg/mL and 3 mg/mL, respectively, for 5 sec at t=0, 2, and 5 hr). The data points are for individual “blowouts” from the nose, measured with tissue paper and balance. The data are plotted on a semi-log scale, so zero values are not shown. The average #s.e.m. for blowouts were: vehicle 0.40±0.03 g, D-Ala-OiPr 0.19±0.02 g, GlyOiPr 0.19±0.02 g, with n=70, 44, 42 observations per group, respectively.
In the first experimental step, the phlegm secretion must be accurately measured. That is, it is necessary to show what is “blown out” of the nose in patients with rhinitis (FIG. 8). The treatment goal is to reduce the accumulation of dense, slimy, viscous phlegm, which will otherwise ooze out of the nasal cavity. In practice, it was discovered that if treatment can reduce individual blowouts to <0.25 g/event, the subject with rhinitis becomes essentially “disease-free” and is able to have normal daily activities and sleep well at night. […] The top-loading microbalance method for quantifying phlegm weight is an excellent monitor of rhinitis intensity.
FIG. 9. […] The data points represent secretions recorded for 10-15 hr per day. These points were fitted by linear regression (GraphPad Prism), and the 10-hr secretion measured (avg.±s.e.m) as vehicle 3.53±0:44 g, D-Ala-OiPr 1.700:27 g; GlyOiPr 1.32±0.32 g, with n=6, 5, 5 observations per group, respectively. […]

nasal cavity [2] = test: Nebulizer screening of TRPM8 agonists for sensations in the nasal cavity; conditions: NasoNeb nebulizer, 3 to 5 sec per nostril
philtrum skin = test: Cooling duration bioassay on philtrum skin
Source text: FIG. 1. Comparison of cooling duration of various p-menthanecarboxamide analogs on philtrum skin versus ocular margins. The philtrum skin is keratinized, but the ocular margins are not. The test substances numbered 1 to 11 are: D-Ala-OiPr, Gly-OiPr, D-Ala-OEt, D-Ala-OMe, D-Ala-GlynPr, GlynPr, D-Ala-OnBu, GlynBu, GlyOEt, L-Ala-OEt, and N-Me-D-Ala-OEt, respectively. Two outliers (1 and 2) were identified as preferred embodiments because they preferentially cool the ocular margins. The nasal cavity surfaces like the ocular margins are not keratinized.
Cooling agents have been assayed in various ways depending on intended use. For example, for the skin the test substance can be applied on philtrum skin, using descriptions of coolness on a scale of 0 to 3. For the ocular surface, the active ingredient can be applied to the closed eyelids using a wipe. In the oral cavity, drug applications are on the posterior dorsal surface of the tongue. For the oropharyngeal surface, the cooling agent may be applied as an orally disintegrating tablet. The ability of a cooling agent to antagonize a noxious stimuli may also be tested, using nociception from citric acid or chili pepper sauce. Responses are usually measured using a Visual Analog Scale with a numerical rating. For nasal responses, however, such procedures have not been standardized. Some endpoints to consider are open and comfortable breathing, the presence or absence of sniffles, and the secretion of phlegm.

SMILES | Weight of individual blowouts of nasal secretions (average ± s.e.m.) (nasal cavity [1]) | 10-hr nasal secretion (avg. ± s.e.m) (nasal cavity [1]) | Sensory effects after delivery into the nasal cavity (nasal cavity [2]) | Philtrum Skin (philtrum skin; Table 6, cooling duration, keratinized skin) | Philtrum Skin (philtrum skin; Table 7, Gly esters)
CC(C)OC(=O)[C@@H](C)NC(=O)[C@@H]1C[C@H](C)CC[C@H]1C(C)C [D-Ala-OiPr, (R)-2-[((1R,2S,5R)-2-isopropyl-5-methyl-cyclohexanecarbonyl)amino]-propionic acid i-propyl ester] | 0.19 ± 0.02 g | 1.70±0.27 g | Longer-acting than GlyOiPr. Excellent agent. It may have a slightly bitter taste. | 34 min | –
CC(C)OC(=O)CNC(=O)[C@@H]1C[C@H](C)CC[C@H]1C(C)C [GlyOiPr, [((1R,2S,5R)-2-isopropyl-5-methyl-cyclohexanecarbonyl)-amino]-acetic acid isopropyl ester] | 0.19 ± 0.02 g | 1.32±0.32 g | The sense of coolness is pure, without any harsh tones. | – | 27 min
